Reference: paper PMC12304826, “Redirecting the Peptide Cleavage Causes Protease Inactivation” (Angewandte Chemie (International Ed. in English), 2025)
Like-named read-outs stand apart in the source and are kept apart here.

Assays:
human cathepsin K = target: T1, human cathepsin K (Homo sapiens, UniProt P43235); experiment: Cathepsin K inhibition assay (Cbz-Leu-Arg-AMC); assay type: biochemical; conditions: for kinac/Ki ± SE Cat K: five inhibitor concentrations, 60 min progress curves
T1 construct: purchased Enzo Life Sciences, Lörrach, Germany
T1 sequence (P43235 115-329): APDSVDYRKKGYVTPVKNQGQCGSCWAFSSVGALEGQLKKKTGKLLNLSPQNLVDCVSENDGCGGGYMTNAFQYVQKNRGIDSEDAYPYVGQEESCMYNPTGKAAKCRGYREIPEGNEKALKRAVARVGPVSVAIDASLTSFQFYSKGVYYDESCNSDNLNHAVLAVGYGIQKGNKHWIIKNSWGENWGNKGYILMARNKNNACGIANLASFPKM
Procedure: 1. Enzyme Inhibition Assays and Kinetic Data of Inhibition of Cathepsins B, L, K and S General. Human cathepsins were assayed either fluorimetrically or spectrophotometrically as noted below. The 10 mM inhibitor solutions were prepared in DMSO. The final concentration of DMSO in all assays was 2%. Non-linear regressions were conducted with GraFit 5. Residual cathepsin activity at an inhibitor concentration of 20 µM was determined from duplicate measurements based on the product formation after 60 min. Concentration dependent measurements were performed in duplicate measurements with five different inhibitor concentrations when the residual cathepsin activity in the presence of 20 µM inhibitor was below 70% (cathepsin B) or below 50% (cathepsins cathepsins L, K, and S). Progress curves were monitored for 60 min. First-order rate constants, kobs, were determined by non-linear regression following the equation [P] = vi × (1 – exp(-kobs × t))/kobs + d, where [P] is the product concentration, vi is the initial product formation rate, kobs is the observed first-order rate constant, and d is the offset. Mean values of kobs were plotted versus corresponding inhibitor concentrations [I], and second-order rate constants of inactivation, kinac/Ki, were obtained by linear regression. The equation kobs/[I] = (kinac/Ki)/(1 + [S]/Km) was used, where [S] is the substrate concentration and Km is the Michaelis-Menten constant. Standard errors (SE) refer to the linear regression. […] Cathepsin K inhibition assay.[1] Human recombinant cathepsin K (Enzo Life Sciences, Lörrach, Germany) was assayed fluorimetrically on a Monaco Safas spectrofluorometer flx or a Fluostar OPTIMA plate reader (BMG Labtech, Ortenberg, Germany). The wavelength for excitation was 360 nm and for emission 440 nm. The reactions were followed at 25 °C. A human cathepsin K stock solution of 23 µg/mL in 50 mM sodium acetate pH 5.5, 50 mM NaCl, 0.5 mM EDTA, 5 mM DTT was diluted 1:100 with assay buffer (100 mM sodium citrate pH 5.0, 100 mM NaCl, 1 mM EDTA, 0.01% CHAPS) containing 5 mM DTT and incubated for 30 min at 37 °C. A 10 mM stock solution of the 7-amino-4-methyl-coumarin (AMC)-based fluorogenic substrate Cbz-Leu-Arg-AMC was prepared in DMSO. The final concentration of the substrate was 40 μM (= 13.3 Km). When using the spectrofluorometer, into a cuvette containing 960 μL assay buffer, inhibitor solution and DMSO in a total volume of 16 μL, and 4 μL of the substrate solution were added and mixed. The reaction was initiated by adding 20 µL of the cathepsin K solution. When using the plate reader, into a well containing 192 µL assay buffer, inhibitor solution and DMSO in a total volume of 3.2 µL and 0.8 µL of the substrate solution were added and mixed. The reaction was initiated by adding 4 µL of the cathepsin K solution.
Cathepsin S inhibition assay.[2] […]
DTT, 0.5% Triton X-100 and 30% glycerol was diluted 1:100 with a 50 mM sodium phosphate buffer pH 6.5, 50 mM NaCl, 2 mM EDTA, 0.01% Triton X-100 and 5 mM DTT and incubated for 60 min at 37 °C. A 10 mM stock solution of the fluorogenic substrate Cbz-Phe-Arg-AMC was prepared in DMSO.
The assay was performed with a final substrate concentration of 40 µM (= 0.74 Km). When using the spectrofluorometer, into a cuvette containing 920 μL assay buffer, inhibitor solution and DMSO in a total volume of 16 μL, and 4 μL of the substrate solution were added and mixed. The reaction was initiated by adding 60 μL of the cathepsin S solution. When using the plate reader, into a well containing 188 µL assay buffer, inhibitor solution and DMSO in a total volume of 3.2 µL and 0.8 µL of the substrate solution were added and mixed. The reaction was initiated by adding […] of the cathepsin S solution.

human cathepsin L = target: T2, human cathepsin L (Homo sapiens, UniProt P07711); experiment: Cathepsin L inhibition assay (Cbz-Phe-Arg-pNA); assay type: biochemical
T2 construct: purchased Enzo Life Sciences, Lörrach, Germany
Procedure: 1. Enzyme Inhibition Assays and Kinetic Data of Inhibition of Cathepsins B, L, K and S General. Human cathepsins were assayed either fluorimetrically or spectrophotometrically as noted below. The 10 mM inhibitor solutions were prepared in DMSO. The final concentration of DMSO in all assays was 2%. Non-linear regressions were conducted with GraFit 5. Residual cathepsin activity at an inhibitor concentration of 20 µM was determined from duplicate measurements based on the product formation after 60 min. Concentration dependent measurements were performed in duplicate measurements with five different inhibitor concentrations when the residual cathepsin activity in the presence of 20 µM inhibitor was below 70% (cathepsin B) or below 50% (cathepsins cathepsins L, K, and S). Progress curves were monitored for 60 min. First-order rate constants, kobs, were determined by non-linear regression following the equation [P] = vi × (1 – exp(-kobs × t))/kobs + d, where [P] is the product concentration, vi is the initial product formation rate, kobs is the observed first-order rate constant, and d is the offset. Mean values of kobs were plotted versus corresponding inhibitor concentrations [I], and second-order rate constants of inactivation, kinac/Ki, were obtained by linear regression. The equation kobs/[I] = (kinac/Ki)/(1 + [S]/Km) was used, where [S] is the substrate concentration and Km is the Michaelis-Menten constant. Standard errors (SE) refer to the linear regression. […] Cathepsin L inhibition assay.[1] Human isolated cathepsin L (Enzo Life Sciences, Lörrach, Germany) was assayed spectrophotometrically on a Cary 50 or 100 Bio, Varian, at 405 nm. The reactions were followed at 37 °C. Assay buffer was 100 mM sodium phosphate buffer pH 6.0, 100 mM NaCl, 5 mM EDTA, and 0.01% Brij 35. A stock solution of human cathepsin L of 135 μg/mL in 20 mM malonate buffer pH 5.5, 400 mM NaCl, and 1 mM EDTA was diluted 1:100 with assay buffer containing 5 mM DTT and incubated for 30 min at 37 °C. A 10 mM stock solution of the chromogenic substrate Cbz-Phe-Arg-pNA was prepared in DMSO. The final concentration of the substrate was 100 μM (= 5.88 Km).
Into a cuvette containing 940 μL assay buffer, inhibitor solution and DMSO in a total volume of 10 μL, and 10 μL of the substrate solution were added and mixed. The reaction was initiated by adding 40 μL of the cathepsin L solution.

[1] = inhibitor not soluble at 20 µM, calculated for 20 µM from IC50 at two lower concentrations, read-out: Residual activity @ 20 µM (%) Cat K, approximated [e]
[2] = 20 µM inhibitor, 60 min, read-out: Residual activity @ 20 µM (%) Cat L
[3] = 20 µM inhibitor, 60 min, read-out: Residual activity @ 20 µM (%) Cat K
[4] = inhibitor not soluble at 20 µM, calculated for 20 µM from IC50 at two lower concentrations, read-out: Residual activity @ 20 µM (%) Cat L, approximated [e]

T2 sequence (P07711 114-333): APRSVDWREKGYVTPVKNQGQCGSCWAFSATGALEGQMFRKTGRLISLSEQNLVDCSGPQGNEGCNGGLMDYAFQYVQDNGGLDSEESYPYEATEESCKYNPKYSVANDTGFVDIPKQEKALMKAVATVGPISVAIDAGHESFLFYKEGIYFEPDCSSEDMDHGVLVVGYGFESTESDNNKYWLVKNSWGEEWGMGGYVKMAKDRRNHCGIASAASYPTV

| Structure (SMILES) | remaining activity at 20 µM (human cathepsin K; [1]) [%] | remaining activity at 20 µM (human cathepsin L; [2]) [%] | remaining activity at 20 µM (human cathepsin K; [3]) [%] | remaining activity at 20 µM (human cathepsin L; [4]) [%] | kinac/Ki ± SE Cat K (human cathepsin K) [M⁻¹ s⁻¹] |
| --- | --- | --- | --- | --- | --- |
| CC(C)CC(NC(=O)Oc1ccc(NC(=O)c2ccc(-c3ccccc3)cc2)c(Cl)c1)C(=O)N1CCCC1C(=O)O (stereo not drawn) [Compound 25] | 76 | 94 |  |  |  |
| CC(C)C[C@H](NC(=O)Oc1ccc(Cl)cc1)C(=O)N[C@@H](Cc1ccccc1)C(=O)OC(C)(C)C [Compound 2] |  | 96 | 93 |  |  |
| CC(C)C[C@H](NC(=O)Oc1ccc(Cl)cc1)C(=O)N[C@@H](Cc1ccccc1)C(=O)O [Compound 4] |  | 92 | 92 |  |  |
| O=C(NC(CC1CCCCC1)C(=O)NC(Cc1ccccc1)C(=O)O)Oc1ccc(Cl)cc1 (stereo not drawn) [Compound 7] |  | 86 | 60 |  |  |
| CC(C)C[C@H](NC(=O)Oc1ccc(NC(=O)N(Cc2ccccc2)Cc2ccccc2)c(Br)c1)C(=O)N1CCC[C@H]1C(=O)O [Compound 26] |  |  | 83 |  |  |
| CC(C)C[C@H](NC(=O)Oc1cccc(Cl)c1)C(=O)N1CCC[C@H]1C(=O)O [Compound 23] |  | 92 | 87 |  |  |
| CC(C)CC(NC(=O)Oc1ccc(NC(=O)C(c2ccccc2)c2ccccc2)c(Br)c1)C(=O)N1CCCC1C(=O)O (stereo not drawn) [Compound 27] |  | 81 | 90 |  |  |
| CC(C)CC(OC(=O)Nc1ccc(Cl)cc1)C(=O)N1CCC[C@H]1C(=O)O (stereo partly drawn) [Compound 17] |  | 94 | 95 |  |  |
| CC(C)C[C@@H](C(=O)N1CCC[C@H]1C(=O)O)N(C)C(=O)Oc1ccc(Cl)cc1 [Compound 15] |  | 97 | 91 |  |  |
| CC(C)C[C@H](NC(=O)Nc1ccc(Cl)cc1)C(=O)N1CCC[C@H]1C(=O)O [Compound 19] |  | 96 | 92 |  |  |
| CC(C)CC(NC(=O)Oc1ccc(NC(=O)C(c2ccccc2)c2ccccc2)c(Cl)c1)C(=O)NC(Cc1ccccc1)C(=O)O (stereo not drawn) [Compound 29] | 8 |  |  | 70 |  |
| CC(C)C[C@H](NC(=O)Oc1ccc(-c2ccccc2)c(NC(=O)Cc2ccccc2)c1)C(=O)N1CCC[C@H]1C(=O)O [Compound 21] |  | 92 | 73 |  |  |
| CC(C)CC(CNC(=O)Oc1ccc(Cl)cc1)C(=O)N[C@H](Cc1ccccc1)C(=O)O (stereo partly drawn) [Compound 5] |  | 90 | 70 |  |  |
| CC(C)C[C@H](NC(=O)Oc1ccc(Cl)cc1)C(=O)N1CCC[C@H]1C(=O)O [Compound 8] |  | 97 | 91 |  |  |
| CC(C)CC(NC(=O)Oc1ccc(Cl)c(NC(=O)C(c2ccccc2)c2ccccc2)c1)C(=O)N1CCCC1C(=O)O (stereo not drawn) [Compound 22] |  |  | 87 | 59 |  |
| CC(C)CC(OC(=O)Nc1ccc(Cl)cc1)C(=O)N[C@@H](Cc1ccccc1)C(=O)O (stereo partly drawn) [Compound 16] |  | 95 |  |  | 185 |
| CC(C)C[C@H](NC(=O)Oc1ccc(Cl)cc1)C(=O)N1CCCC[C@H]1C(=O)O [Compound 10] |  | 91 | 93 |  |  |
| O=C(NC(CC1CCCCC1)C(=O)NC(Cc1ccccc1)C(=O)O)Oc1ccc(NC(=O)C(c2ccccc2)c2ccccc2)c(Cl)c1 (stereo not drawn) [Compound 30] |  |  |  | 64 | 3490 |
| CC(C)CC(CNC(=O)Oc1ccc(Cl)cc1)C(=O)N1CCC[C@@H]1C(=O)O (stereo partly drawn) [Compound 9] |  | 95 | 85 |  |  |
| COC(=O)C(Cc1ccccc1)NC(=O)C(CC(C)C)NC(=O)Oc1ccc(Cl)cc1 (stereo not drawn) [Compound 3] |  | 85 | ≥ 98 |  |  |
| CC(C)C[C@H](NC(=O)Oc1ccc(NC(=O)Cc2ccccc2)c(Cl)c1)C(=O)N1CCC[C@H]1C(=O)O [Compound 24] |  | 97 | 95 |  |  |
| CC(C)C[C@H](NC(=O)Nc1ccc(Cl)cc1)C(=O)N[C@@H](Cc1ccccc1)C(=O)O [Compound 18] |  | 94 | 87 |  |  |
| O=C(NC(CC1CCCCC1)C(=O)NC(Cc1ccccc1)C(=O)O)Oc1ccc(NC(=O)C(Cc2ccccc2)Cc2ccccc2)c(Cl)c1 (stereo not drawn) [Compound 31] |  |  |  | 76 | 23.1 |
| CC(C)C[C@H](NC(=O)Oc1ccc(Cl)c(NC(=O)Cc2ccccc2)c1)C(=O)N1CCC[C@H]1C(=O)O [Compound 20] |  | 96 | 82 |  |  |
| CC(C)CC(NC(=O)Oc1ccccc1)C(=O)NC(Cc1ccccc1)C(=O)O (stereo not drawn) [Compound 1] |  | 94 | 77 |  |  |
| CC(C)CC(NC(=O)Oc1ccc(NC(=O)C(c2ccccc2)c2ccccc2)c(Cl)c1)C(=O)N1CCCC1C(=O)O (stereo not drawn) [Compound 28] |  |  | 83 | 62 |  |
